From ChEMBL document CHEMBL1833863, “Synthesis, biological evaluation and molecular docking studies of 1,3,4-thiadiazole derivatives containing 1,4-benzodioxan as potential antitumor agents” (Bioorg Med Chem Lett, 2011)
In brackets after ≈: the same amount, converted by molar mass. Activity calls are given as the source filed them. No cut-off for these calls is given here.

Key:
Focal adhesion kinase 1 [1] = molecular target: T1, Focal adhesion kinase 1 (Homo sapiens, UniProt Q05397); assay: Inhibition of human recombinant full-length FAK assessed as remaining ATP after 4 hrs by Kinase-Glo-luminescence assay
Target sequence in this assay (Q05397 whole entry): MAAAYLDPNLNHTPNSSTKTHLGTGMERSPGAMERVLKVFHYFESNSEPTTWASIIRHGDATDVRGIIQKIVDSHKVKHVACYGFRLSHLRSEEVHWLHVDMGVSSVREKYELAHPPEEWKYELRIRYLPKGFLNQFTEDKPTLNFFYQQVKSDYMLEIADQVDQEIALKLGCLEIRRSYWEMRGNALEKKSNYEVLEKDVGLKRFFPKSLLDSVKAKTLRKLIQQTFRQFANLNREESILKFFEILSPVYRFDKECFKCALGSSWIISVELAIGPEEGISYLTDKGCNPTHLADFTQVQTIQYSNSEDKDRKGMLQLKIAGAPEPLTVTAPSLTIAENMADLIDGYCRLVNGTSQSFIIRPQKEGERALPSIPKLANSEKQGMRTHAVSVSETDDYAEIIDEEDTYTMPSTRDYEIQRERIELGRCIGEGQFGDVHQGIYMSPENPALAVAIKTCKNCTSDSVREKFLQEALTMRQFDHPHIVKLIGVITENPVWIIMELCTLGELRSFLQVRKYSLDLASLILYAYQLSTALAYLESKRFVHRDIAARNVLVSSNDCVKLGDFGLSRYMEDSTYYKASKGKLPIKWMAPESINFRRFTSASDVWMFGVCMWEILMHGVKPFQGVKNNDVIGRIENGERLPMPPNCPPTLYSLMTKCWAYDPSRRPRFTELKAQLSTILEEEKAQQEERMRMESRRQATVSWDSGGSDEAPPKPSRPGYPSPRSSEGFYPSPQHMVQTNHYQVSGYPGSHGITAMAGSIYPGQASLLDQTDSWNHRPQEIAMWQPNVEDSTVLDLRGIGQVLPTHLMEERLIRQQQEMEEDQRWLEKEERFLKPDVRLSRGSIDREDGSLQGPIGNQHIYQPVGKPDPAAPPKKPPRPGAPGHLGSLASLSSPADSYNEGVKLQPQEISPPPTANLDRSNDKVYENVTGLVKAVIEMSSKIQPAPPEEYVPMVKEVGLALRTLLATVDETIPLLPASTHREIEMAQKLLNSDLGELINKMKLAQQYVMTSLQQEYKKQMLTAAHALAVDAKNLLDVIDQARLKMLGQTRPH

BGC-823 = assay: Antiproliferative activity against human BGC823 cells after 48 hrs by MTT assay; type: functional, cell-based; conditions: BGC-823, 48 h
[2] = Antiproliferative activity against human SW1116 cells after 48 hrs by MTT assay; type: functional, cell-based; conditions: SW 1116, 48 h
HeLa = assay: Antiproliferative activity against human HeLa cells after 48 hrs by MTT assay; type: functional, cell-based
HepG2 [3] = assay: Antiproliferative activity against human HepG2 cells after 48 hrs by MTT assay; type: functional, cell-based; conditions: HepG2, 48 h
HepG2 [4] = assay: Induction of apoptosis in human HepG2 cells assessed as early apoptotic cells at 4 uM after 24 hrs using Annexin V-FITC and propidium iodide staining by flow cytometry (reference value: 0.02 %); type: functional
HepG2 [5] = assay: Induction of apoptosis in human HepG2 cells assessed as viable cells at 2 uM after 24 hrs using Annexin V-FITC and propidium iodide staining by flow cytometry (reference value: 96.26 %); type: functional; conditions: HepG2, 24 h, read-out: Activity
HepG2 [6] = assay: Induction of apoptosis in human HepG2 cells assessed as late apoptotic cells at 0.5 uM after 24 hrs using Annexin V-FITC and propidium iodide staining by flow cytometry (reference value: 0.90 %); type: functional
HepG2 [7] = assay: Induction of apoptosis in human HepG2 cells assessed as viable cells at 4 uM after 24 hrs using Annexin V-FITC and propidium iodide staining by flow cytometry (reference value: 96.26 %); type: functional; conditions: HepG2, 24 h, read-out: Activity
HepG2 [8] = assay: Induction of apoptosis in human HepG2 cells assessed as late apoptotic cells at 2 uM after 24 hrs using Annexin V-FITC and propidium iodide staining by flow cytometry (reference value: 0.90 %); type: functional
HepG2 [9] = assay: Induction of apoptosis in human HepG2 cells assessed as cleaved PARP level at 0.74 to 20 […] uM by Western blotting; type: functional, cell-based
HepG2 [10] = assay: Induction of apoptosis in human HepG2 cells assessed as early apoptotic cells at 2 uM after 24 hrs using Annexin V-FITC and propidium iodide staining by flow cytometry (reference value: 0.02 %); type: functional
HepG2 [11] = assay: Induction of apoptosis in human HepG2 cells assessed as necrotic cells at 0.5 uM after 24 hrs using Annexin V-FITC and propidium iodide staining by flow cytometry (reference value: 2.82 %); type: functional
HepG2 [12] = assay: Induction of apoptosis in human HepG2 cells assessed as cleaved caspase 3 level at 0.74 to 20 […] uM by Western blotting; type: functional, cell-based
HepG2 [13] = assay: Induction of apoptosis in human HepG2 cells assessed as early apoptotic cells at 1 uM after 24 hrs using Annexin V-FITC and propidium iodide staining by flow cytometry (reference value: 0.02 %); type: functional
Focal adhesion kinase 1 [14] = molecular target: T1, Focal adhesion kinase 1; assay: Inhibition of FAK in human HepG2 cells at 2.22 to 20 uM by Western blot analysis; type: cell-based
Target sequence in this assay (Q05397 2-1052 limits assumed): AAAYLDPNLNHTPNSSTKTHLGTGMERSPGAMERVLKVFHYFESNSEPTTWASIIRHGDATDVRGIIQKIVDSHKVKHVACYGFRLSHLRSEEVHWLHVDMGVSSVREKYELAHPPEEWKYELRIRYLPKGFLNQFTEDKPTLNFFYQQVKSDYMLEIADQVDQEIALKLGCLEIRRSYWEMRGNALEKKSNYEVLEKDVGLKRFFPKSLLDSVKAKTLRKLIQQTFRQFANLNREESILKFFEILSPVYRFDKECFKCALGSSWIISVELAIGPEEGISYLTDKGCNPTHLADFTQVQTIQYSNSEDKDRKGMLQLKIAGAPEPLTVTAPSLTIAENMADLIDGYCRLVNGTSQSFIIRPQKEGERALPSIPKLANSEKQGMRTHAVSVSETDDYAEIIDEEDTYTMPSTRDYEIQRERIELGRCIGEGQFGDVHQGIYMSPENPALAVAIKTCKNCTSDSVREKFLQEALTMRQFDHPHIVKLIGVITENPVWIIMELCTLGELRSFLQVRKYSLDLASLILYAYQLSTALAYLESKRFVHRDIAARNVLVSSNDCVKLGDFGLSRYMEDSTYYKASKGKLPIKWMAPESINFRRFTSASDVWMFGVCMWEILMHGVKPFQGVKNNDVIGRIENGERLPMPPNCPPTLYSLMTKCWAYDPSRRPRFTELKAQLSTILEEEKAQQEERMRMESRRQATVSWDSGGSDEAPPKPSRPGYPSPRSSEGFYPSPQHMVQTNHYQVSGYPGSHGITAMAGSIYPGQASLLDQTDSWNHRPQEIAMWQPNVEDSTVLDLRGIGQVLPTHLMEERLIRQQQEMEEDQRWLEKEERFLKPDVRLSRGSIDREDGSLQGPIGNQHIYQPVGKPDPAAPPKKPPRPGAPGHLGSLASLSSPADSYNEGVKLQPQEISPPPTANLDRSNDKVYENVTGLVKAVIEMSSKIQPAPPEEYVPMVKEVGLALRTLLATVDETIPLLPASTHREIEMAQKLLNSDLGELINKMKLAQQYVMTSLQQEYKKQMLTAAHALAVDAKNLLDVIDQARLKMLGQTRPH

HepG2 [15] = assay: Induction of apoptosis in human HepG2 cells assessed as viable cells at 0.5 uM after 24 hrs using Annexin V-FITC and propidium iodide staining by flow cytometry (reference value: 96.26 %); type: functional; conditions: HepG2, 24 h, read-out: Activity
HepG2 [16] = assay: Induction of apoptosis in human HepG2 cells assessed as necrotic cells at 1 uM after 24 hrs using Annexin V-FITC and propidium iodide staining by flow cytometry (reference value: 2.82 %); type: functional
HepG2 [17] = assay: Induction of apoptosis in human HepG2 cells assessed as late apoptotic cells at 1 uM after 24 hrs using Annexin V-FITC and propidium iodide staining by flow cytometry (reference value: 0.90 %); type: functional
HepG2 [18] = assay: Induction of apoptosis in human HepG2 cells assessed as necrotic cells at 4 uM after 24 hrs using Annexin V-FITC and propidium iodide staining by flow cytometry (reference value: 2.82 %); type: functional
HepG2 [19] = assay: Induction of apoptosis in human HepG2 cells assessed as late apoptotic cells at 4 uM after 24 hrs using Annexin V-FITC and propidium iodide staining by flow cytometry (reference value: 0.90 %); type: functional
HepG2 [20] = assay: Induction of apoptosis in human HepG2 cells assessed as viable cells at 1 uM after 24 hrs using Annexin V-FITC and propidium iodide staining by flow cytometry (reference value: 96.26 %); type: functional; conditions: HepG2, 24 h, read-out: Activity
HepG2 [21] = assay: Induction of apoptosis in human HepG2 cells assessed as necrotic cells at 2 uM after 24 hrs using Annexin V-FITC and propidium iodide staining by flow cytometry (reference value: 2.82 %); type: functional
HepG2 [22] = assay: Induction of apoptosis in human HepG2 cells assessed as early apoptotic cells at 0.5 uM after 24 hrs using Annexin V-FITC and propidium iodide staining by flow cytometry (reference value: 0.02 %); type: functional

Compound	EC50 (Focal adhesion kinase 1 [1])	EC50 (BGC-823)	EC50 [2]	EC50 (HeLa)	EC50 (HepG2 [3])	further results
O=C(Cc1ccccc1)Nc1nnc(-c2ccc3c(c2)OCCO3)s1	50.2 µM	27.4 µg/mL (≈ 77.5 µM)	51.3 µg/mL (≈ 145 µM)	49.9 µg/mL (≈ 141 µM)	18.3 µg/mL (≈ 51.7 µM)	
O=C(Cc1ccc2ccccc2c1)Nc1nnc(-c2ccc3c(c2)OCCO3)s1		67.9 µg/mL (≈ 168 µM)	43.6 µg/mL (≈ 108 µM)	> 100 µg/mL	> 100 µg/mL	
O=C(Nc1nnc(-c2ccc3c(c2)OCCO3)s1)c1ccc(Cl)nc1	36.5 µM	> 100 µg/mL	30.3 µg/mL (≈ 81 µM)	> 100 µg/mL	15.3 µg/mL (≈ 41 µM)	
O=C(Nc1nnc(-c2ccc3c(c2)OCCO3)s1)c1ccncc1		41 µg/mL (≈ 121 µM)	> 100 µg/mL	> 100 µg/mL	> 100 µg/mL	
CC(=O)c1ccc(CC(=O)Nc2nnc(-c3ccc4c(c3)OCCO4)s2)cc1		> 100 µg/mL	> 100 µg/mL	> 100 µg/mL	> 100 µg/mL	
O=C(Nc1nnc(-c2ccc3c(c2)OCCO3)s1)c1ccccc1	62 µM	46.1 µg/mL (≈ 136 µM)	67.6 µg/mL (≈ 199 µM)	> 100 µg/mL	34.8 µg/mL (≈ 102 µM)	
O=C(Cc1ccc(Cl)cc1)Nc1nnc(-c2ccc3c(c2)OCCO3)s1	31.3 µM	> 100 µg/mL	40.7 µg/mL (≈ 105 µM)	26.8 µg/mL (≈ 69 µM)	13.8 µg/mL (≈ 35.5 µM)	
O=C(Cc1cccc(Cl)c1)Nc1nnc(-c2ccc3c(c2)OCCO3)s1	46.7 µM	> 100 µg/mL	47.6 µg/mL (≈ 123 µM)	34.9 µg/mL (≈ 89.9 µM)	18.4 µg/mL (≈ 47.5 µM)	
O=C(Nc1nnc(-c2ccc3c(c2)OCCO3)s1)c1ccccn1		35.8 µg/mL (≈ 105 µM)	> 100 µg/mL	> 100 µg/mL	> 100 µg/mL	
CCOc1ccc(CC(=O)Nc2nnc(-c3ccc4c(c3)OCCO4)s2)cc1OCC		> 100 µg/mL	> 100 µg/mL	> 100 µg/mL	> 100 µg/mL	
Cc1ccc(C(=O)Nc2nnc(-c3ccc4c(c3)OCCO4)s2)cn1		> 100 µg/mL	> 100 µg/mL	> 100 µg/mL	> 100 µg/mL	
O=C(/C=C/c1ccccc1)Nc1nnc(-c2ccc3c(c2)OCCO3)s1	29.5 µM	45.4 µg/mL (≈ 124 µM)	60.2 µg/mL (≈ 165 µM)	> 100 µg/mL	10.3 µg/mL (≈ 28.1 µM)	Activity (HepG2 [4]): 11%; viability at 2 µM (HepG2 [5]): 50.8%; Activity (HepG2 [6]): 8%; viability at 4 µM (HepG2 [7]): 39.5%; Activity (HepG2 [8]): 18%; Activity (HepG2 [9]): Active; Activity (HepG2 [10]): 4.03%; Activity (HepG2 [11]): 32.8%; Activity (HepG2 [12]): Active; Activity (HepG2 [13]): 3.49%; inhibition (Focal adhesion kinase 1 [14]): Active; viability at 0.5 µM (HepG2 [15]): 58.3%; Activity (HepG2 [16]): 24.49%; Activity (HepG2 [17]): 13.17%; Activity (HepG2 [18]): 26.23%; Activity (HepG2 [19]): 23.25%; viability at 1 µM (HepG2 [20]): 58.9%; Activity (HepG2 [21]): 27.21%; Activity (HepG2 [22]): 0.8%
Nc1ccc(C(=O)Nc2nnc(-c3ccc4c(c3)OCCO4)s2)cc1		> 100 µg/mL	41.2 µg/mL (≈ 116 µM)	> 100 µg/mL	> 100 µg/mL	
O=C(Cc1cccc(Br)c1)Nc1nnc(-c2ccc3c(c2)OCCO3)s1	60.5 µM	> 100 µg/mL	> 100 µg/mL	54.2 µg/mL (≈ 125 µM)	45.8 µg/mL (≈ 106 µM)	
COc1cccc(CC(=O)Nc2nnc(-c3ccc4c(c3)OCCO4)s2)c1		> 100 µg/mL	> 100 µg/mL	> 100 µg/mL	> 100 µg/mL	
Cc1ccccc1C(=O)Nc1nnc(-c2ccc3c(c2)OCCO3)s1		> 100 µg/mL	> 100 µg/mL	> 100 µg/mL	> 100 µg/mL	
O=C(Cc1ccc(Br)cc1)Nc1nnc(-c2ccc3c(c2)OCCO3)s1	54.9 µM	> 100 µg/mL	> 100 µg/mL	51.2 µg/mL (≈ 118 µM)	42.1 µg/mL (≈ 97.5 µM)	
O=C(Cc1ccc(F)cc1)Nc1nnc(-c2ccc3c(c2)OCCO3)s1	51.2 µM	> 100 µg/mL	> 100 µg/mL	> 100 µg/mL	23.8 µg/mL (≈ 64 µM)	
O=C(CCc1ccccc1)Nc1nnc(-c2ccc3c(c2)OCCO3)s1	38 µM	14.2 µg/mL (≈ 38.7 µM)	16.2 µg/mL (≈ 44 µM)	32.5 µg/mL (≈ 88.3 µM)	15.3 µg/mL (≈ 41.7 µM)	
O=c1[nH]cc(F)c(=O)[nH]1 [FLUOROURACIL]		17.4 µg/mL (≈ 134 µM)	28.5 µg/mL (≈ 219 µM)	31 µg/mL (≈ 238 µM)	23.3 µg/mL (≈ 179 µM)	
